Results taken from patent US5008291A, “Method and composition for achieving chemotherapeutic activity” (Ohio State University Research Foundation, priority 1989, dated 1991).
“Also recorded” adds a separate entry of the source.

Columns and labels:
[1] = test system: beta-glucuronidase; conditions: cells, blood, urine, intestine (and liver); cited from earlier work
[2] = test system: DMBA-induced mammary tumors; assay: DMBA-induced mammary tumor formation (chemoprevention), Example I; format: in vivo, female Sprague Dawley rats; conditions: for No. of Rats with Tumors / Total No. Tumors: 20 rats
Experimental: They were maintained on the diets for approximately 4 mos., and were examined (palpated) for mammary tumors weekly. […] The retinoid (HPR) was first dissolved in 25 ml of a vehicle consisting of ethanol-tricaprylin-6% α-tocopherol, then thoroughly mixed with powdered rat chow.

[3] = test system: established DMBA-induced mammary tumors; assay: Growth of established DMBA-induced rat mammary tumors, Example II; format: in vivo, female Sprague Dawley rats; conditions: for increase of tumor size / decrease of mammary tumor size: 25 days; for increase of tumor size: controls 98%; for tumor growth: diets supplemented with low ineffective doses; for effect on tumor growth/development when fed separately: low (ineffective) dosages fed separately
Experimental: Louis, Mo.) in 1.0 ml of sesame oil, Abou-Issa et al., Proc. Natl. Acad. Sci. U.S.A., supra. […] Tumor sizes were measured in all the rats just before placing them on the following experimental diets (Groups I-VI): (I) rat chow (RMH 3200, Pro Lab, Syracuse, N.Y.); […] Natl. Acad. Sci. U.S.A., supra. The latter vehicle was added to the diet of all six groups. The additives were blended into the diet with a mechanical mixer. All the tumors that developed within the time frame of this example are histologically adenocarcinomas. This finding has been previously reported by Huggins et al., Mammary cancer induced by a single feeding of polynuclear hydrocarbons, and its suppression, Nature, 185:204-207 (1961), in this animal model under the same conditions, and has been confirmed in several indentical experiments. At later time periods beyond the time frame of this example fibroadenomas usually develop, Welsch et al., In "Cellular and Molecular Biology of Mammary Cancer", ([…] and E. Anderson, eds.) Plenum Press, N.Y. 1987, pp 163-179. Tumor measurements were began at the time the rats were placed on the experimental diets and were continued twice weekly throughout the duration of the experiment. Two axes were measured - the longest axis (L) and the axis at right angles to the longest (W), using a vernier caliper. […] Weights of the rats on the control and experimental diets were recorded weekly.

[4] = Body weight of rats, Example II; format: in vivo, female Sprague Dawley rats; conditions: for Final Weight: end of experiment; for Initial Weight: just before treatment
Experimental: Rat mammary tumors were induced by treating one hundred 50 day old female Sprague Dawley rats (Harlan Industries, Indianapolis, Ind.) by gavage with a single dose of 15 mg of 7,12-dimethylbenz(a)anthracene (Sigma Chemical Co., St. Louis, Mo.) in 1.0 ml of sesame oil, Abou-Issa et al., Proc. Natl. Acad. Sci. U.S.A., supra. The rats were maintained on a chow diet ad libitum until the tumors had formed in 70% of the rats and had reached a size of approximately 2.0 cm in diameter; 4 months later at which time they were randomized into six groups of 10 rats each. […] The latter vehicle was added to the diet of all six groups. The additives were blended into the diet with a mechanical mixer.
Tumor regression is indicated by at least 20% reduction in tumor size and each tumor is compared to its initial size on day zero. Weights of the rats on the control and experimental diets were recorded weekly.

[5] = test system: Estrogen Receptors; assay: Estrogen receptors of established DMBA-induced mammary tumors; format: in vivo, female Sprague Dawley rats; conditions: N 7
Experimental: (§1) Estrogen and progesterone receptors were measured in the OSU Hormone Receptor Laboratory by the multipoint dextran-coated charcoal method as previously described in Schuller et al., Estrogen and progesterone receptors in head and neck cancer, Arch. […] The data of specific binding were analyzed by Scatchard, The Attraction of proteins for small molecules and ions, Ann. N.Y. Acad. Sci. 51:660-672 (1949), plots to determine the equilibrium dissociation constant (Kd) and binding capacity expressed as femtomoles of estradiol or progesterone (R-5020) specifically bound per mg of cytosol protein for estrogen and progesterone receptors respectively. Cytosol protein concentrations were determined by the procedure of Lowry et al., Protein measurement with the folin phenol reagent, J. Biol. Chem. 193:265-275 (1951).

[6] = test system: Progesterone Receptors; assay: Progesterone receptors of established DMBA-induced mammary tumors; format: in vivo, female Sprague Dawley rats; conditions: N 7
Experimental: as §1

[7] = Body weight gain of rats, Example I (FIG. 4); format: in vivo, female Sprague Dawley rats; conditions: prolonged feeding of diets containing CGT and HPR
[8] = test system: 7,12-dimethylbenz(a)anthracene-induced mammary tumorigenesis; conditions: cited from earlier work
[9] = test system: chemical carcinogenesis; conditions: sustained release dietary form; liver, lung, skin, mammary gland; cited from earlier work
[10] = test system: sex hormones; conditions: CGT diet; anti-promotional effect; cited from earlier work
[11] = as calcium glucarate; cited from earlier work
[12] = CGT-supplemented diet; cited from earlier work
[13] = test system: MCF-7 cells; assay: Growth of MCF-7 cells (GL, HPR, GL and HPR), Table II; format: cell-based, human; conditions: 5 days; for No. of viable cells: mean ± SE of three experiments
Text: The values shown are the mean +/- ISE for three experiments counted in triplicates. The numbers in parenthesis indicate the number of free floating (mostly non viable) cells in the media.

[14] = test system: established DMBA-induced mammary tumors; assay: HPR on already established DMBA-induced mammary tumors; format: in vivo, female Sprague Dawley rats
Experimental: When higher doses (2 mmol/kg diet) of HPR were used, growth arrest was followed within 5 to 10 days by 30% regression of the DMBA-induced mammary tumors. Also, HPR (0.1 uM) inhibited the […] growth of the human breast cancer cell line (MCF-7) to 50% of the control within 7 days.

[15] = test system: established mammary tumors; assay: HPR on established mammary tumors in CD8 F1 mice; format: in vivo; conditions: CD8 F1 mice with established mammary tumors
[16] = rat, in vivo; cited from earlier work

## 2,4-di-O-acetyl-D-glucaro-1,4-lactone [reference compound]
[1]
  inhibition of beta-glucuronidase: effective as inhibitors of beta-glucuronidase

## O=C([O-])[C@@H](O)[C@@H](O)[C@H](O)[C@@H](O)C(=O)[O-].[Ca+2] [CGT, calcium glucarate]
[2]; 1% CGT in diet
  Tumor Incidence: 55
  Tumors Per Rat: 1.0
  No. of Rats with Tumors: 11
  Total No. Tumors: 20
[2]; 2% CGT in diet
  Tumor Incidence: 55
  Tumors Per Rat: 1.0
  No. of Rats with Tumors: 11
  Total No. Tumors: 20
[2]; 4% CGT in diet
  Tumor Incidence: 35
  Tumors Per Rat: 0.5
  No. of Rats with Tumors: 7
  Total No. Tumors: 10
[2]; CGT (4%)
  inhibition of tumor incidence: 50-60%
  inhibition of tumors/rat: 50-65%
[2]; CGT alone, 4 gm/100 gm of chow diet
  minimum dosage used alone consistent with maximum inhibition of carcinogenesis: ~4 gm %
[3]; CGT 64 mmol/kg
  increase of tumor size: 55%
[3]; CGT 128 mmol/kg
  decrease of mammary tumor size: 25%
[3]
  tumor growth: continued to grow
  effect on tumor growth/development when fed separately: enhanced tumor growth; also recorded: no observable inhibitory effect and indeed enhanced tumor development
[4]; CGT (2%)
  Final Weight: 415 +/- 15 gm
  Initial Weight: 401 +/- 10 gm
[4]; CGT (4%)
  Final Weight: 429 +/- 26 gm
  Initial Weight: 404 +/- 22 gm
[5]; CGT (2%)
  Estrogen Receptors: 42.7 +/- 7.0 Fmoles/mg Protein
[5]; CGT (4%)
  Estrogen Receptors: 44.3 +/- 5.9 Fmoles/mg Protein
[6]; CGT (2%)
  Progesterone Receptors: 84.4 +/- 17.0 Fmoles/mg Protein
[6]; CGT (4%)
  Progesterone Receptors: 82.0 +/- 16.0 Fmoles/mg Protein
[7]
  effect on weight gain: did not affect weight gain
[8]; 4% CGT diet from two weeks after carcinogen, by 28 weeks
  tumor induction relative to controls: 30 % of that in the controls
[8]; chow diet supplemented with CGT, some tumors
  regression of tumors: underwent regression
[1]
  inhibition of beta-glucuronidase: effective as inhibitors of beta-glucuronidase
[9]
  chemopreventive activity: potent chemopreventative agent
[10]
  steady-state level of sex hormones: reduction in the steady-state level of sex hormones
[11]
  dietary dosage that is non-toxic: up to 10 % in the diet
[12]
  food quantity and weight gain: identical to those on the normal chow diet

## O=C(O)[C@@H](O)[C@H]1OC(=O)[C@H](O)[C@H]1O [GL, D-glucaro-1,4-lactone]
[13]; GL (10^-3 M)
  free floating (mostly non viable) cells, % of control: 7 % of control
  number of free floating (mostly non viable) cells: 4560
  No. of viable cells: 32560 ± 1800
[13]; GL (10^-4 M)
  free floating (mostly non viable) cells, % of control: 6 % of control
  number of free floating (mostly non viable) cells: 3440
  No. of viable cells: 49480 + 3160
[1]
  inhibition of beta-glucuronidase: potent inhibitor of beta-glucuronidase

## CC1=C(/C=C/C(C)=C/C=C/C(C)=C/C(=O)Nc2ccc(O)cc2)C(C)(C)CCC1 [HPR, N-(4-hydroxyphenyl) retinamide]
[2]; 0.75 mmol/kg diet HPR
  Tumor Incidence: 60
  Tumors Per Rat: 1.0
  No. of Rats with Tumors: 12
  Total No. Tumors: 20
[2]; HPR (1.5 mmol)
  inhibition of tumor incidence: 50-60%
  inhibition of tumors/rat: 50-65%
[2]; HPR alone, in diet
  minimum dosage used alone consistent with maximum inhibition of carcinogenesis: 1.0 to 1.5 mmol/kg
[3]; HPR 0.75 mmol/kg
  increase of tumor size: 70%
[3]; HPR 2 mmol/kg
  decrease of mammary tumor size: 15%
[3]
  tumor growth: continued to grow
  effect on tumor growth/development when fed separately: no observable inhibitory effect and indeed enhanced tumor development
[13]; HPR (5 × 10^-8 M)
  free floating (mostly non viable) cells, % of control: 7 % of control
  number of free floating (mostly non viable) cells: 4160
  No. of viable cells: 33680 ± 2627
[14]; 1.0 mmol/kg diet daily, within 10 days
  inhibition of tumor growth: 80-90%
[14]; 2 mmol/kg diet
  tumor growth: growth arrest
[14]; 2 mmol/kg diet, within 5 to 10 days after growth arrest
  regression of DMBA-induced mammary tumors: 30%
[15]
  inhibition of tumor growth: 50%
[4]; HPR (0.75 mmol/kg)
  Final Weight: 421 +/- 14 gm
  Initial Weight: 409 +/- 18 gm
[4]; HPR (2.0 mmol/kg)
  Final Weight: 413 +/- 10 gm
  Initial Weight: 401 +/- 13 gm
[5]; HPR (2.0 mmol/kg)
  Estrogen Receptors: 50.6 +/- 8.4 Fmoles/mg Protein
[6]; HPR (0.75 mmol/kg)
  Progesterone Receptors: 90.7 +/- 18.0 Fmoles/mg Protein
[6]; HPR (2.0 mmol/kg)
  Progesterone Receptors: 89.3 +/- 13.7 Fmoles/mg Protein
[7]
  effect on weight gain: did not affect weight gain
[16]
  tissue trophism: displays trophism for the mammary gland

## O=C(O)[C@@H](O)[C@@H](O)[C@H](O)[C@@H](O)C(=O)[O-].[K+] [potassium hydrogen glucarate, reference compound]
[1]
  inhibition of beta-glucuronidase: effective as inhibitors of beta-glucuronidase
